Starred links: 1 amine or outer side, 2 acyl side, 3 side chain; linkers in the order of their positions; H or OH if unused. Positions of bridges follow the written chain, without caps; N, C: chain ends. Non-standard residues stand in square brackets, D forms with d. Residues, ends and D or L forms follow the SMILES beside them. X1 = O=C(CC1(S[*:2])CCCCC1)[*:1]
Legend:
ADH = ADH bioassay (alteration in urine output due to ADH); format: in vivo; details: for ADH Bioassay pA2: in vivo
Protocol: The above compound was also tested for antagonism to vasopressin. Anti-ADH activity can be determined by measuring the alteration in urine output due to ADH in the presence and absence of the antagonist. A suitable ADH-assay is described in Sawyer, et al., Endocrinology, 63:694 (1958). […] The ratio of oxytocin antagonism to ADH antagonism was very high, viz. over 1, 866, as compared with 200 for the compositions disclosed in the parent applications.
The anti-ADH activity is measured by the alteration in urine […] in the presence and absence of the antagonist to determine the specificity of the antagonist. The anti-ADH assay is described in Sawyer, et al., Endocrinology, 63:694 (1958).

ESTROUS RAT UTERUS = assay: Oxytocic bioassay (isolated rat uterus, integrated contraction response to oxytocin); format: cell-based; details: for Oxytocic Bioassay pA2: virgin rat uterus in natural estrus, Munsick's buffer 0.5 mM Mg++, integrated contraction area
From the text: The protocol used for the oxytocin bioassay procedure is derived from procedures described in a paper by Sawyer, et al., Endocrinology, 106:81 (1980), which in turn was based on reports of Munsick, Brit. J. Pharmacol., 3:328 (1960), and Holton, Brit. J. Pharmacol., 3:328 (1948). The assay calculations for the pA2 estimates are described by Schild, British J. Pharmacology, 2:189 (1947). The major difference in the present procedure from those reported by others in the field is that the area under the contraction is integrated where most other techniques calculate the amplitude. Integration provides much more consistent and reliable results although the pA2 estimates are approximately an order of magnitude lower than those reported using amplitude of the contraction as the endpoint.
1. Animals--a 1.5 cm piece of uterus from a virgin rat (Holtzman) in natural estrus is used for the assay.
2. Buffer/Assay Bath--The buffer used is Munsicks. […] The buffer is gassed continuously with 95% oxygen; 5% carbon dioxide giving a pH of 7.4. The temperature of the assay bath is 37° C. A 10 ml assay bath is used that contains a water jacket for maintaining the temperature and inlet and outlet spikets for adding and removing buffer.
3. Polygraph/transducer--The piece of uterine tissue used for the assay is anchored at one end and connected to a Statham Strain Gauge Force Transducer at the other end which in turn is attached to a Grass Polygraph Model 79 for monitoring the contractions.
4. Assay Protocol. (a) The tissue is equilibrated in the assay bath for one hour with washing with new buffer every fifteen minutes. One gram of tension is kept on the tissue at all times.
(b) The tissue is stimulated initially with oxytocin at 10 nM to "acclimate" the tissue and with […] KCl to determine the maximum contractile response.
(d) The tissue is exposed to oxytocin (Calbiochemical, San Diego, Calif.) for one minute and washed out. There is a three minute interval before addition of the next dose of the agonist or antagonist. When the antagonist is tested, it is given five minutes before the agonist. The agonist is given for one minute. All responses are integrated using a 7P10 Grass Integrator. This is the major difference between the present protocol and others in the literature which usually measure amplitude of the contractions as the response. A single concentration of oxytocin, equal to 80% of the maximum response, is used to test the antagonist. […] This is repeated three times for each dose of antagonist for a three point assay.
(e) Calculations for pA2 : The dose-response (DR) ratios are calculated for antagonist and a Schild's Plot is performed by plotting the Log (DR-1) vs. Log of antagonist concentration. The line plotted is calculated by least squares regression analysis. The pA2 is the concentration of antagonist at the point where the regression line crosses the 0 point of the Log (DR-1) ordinate. The pA2 is the negative Log of the concentration of antagonist that will reduce the response to the agonist by one-half.
The protocol used for the oxytocin bioassay procedure is derived from procedures described in a paper by Sawyer, et al., Endocrinology, 106:81 (1980), which in turn was based on reports of Munsick, Brit. J. Pharmacol., 3:328 (1960), and Holton, Brit. J. Pharmacol., 3:328 (1948). The assay calculations for the pA2 estimates are described by Schild, Brit. J. Pharmacol. (1947). The major difference in procedure from those previously reported was the integration of the area under the contraction instead of merely calculating the amplitude. Integration provides more consistent and reliable results, although the pA2 estimates are about an order of magnitude lower than those reported using amplitude of the contraction as the endpoint.
A 1.5 cm piece of uterus from a virgin rat (Holtzman) in natural estrus is used for the assay.
The buffer used is Munsick's. […]

Compound	ADH Bioassay pA2 (ADH)	Oxytocic Bioassay pA2 (ESTROUS RAT UTERUS)	activity as a vasopressin antagonist (ADH; result in words)	OXYTOCIC BIOASSAY ED50 (ESTROUS RAT UTERUS; estrous rat uterus, Table 3) [nM]	BIOASSAY ED50 (ESTROUS RAT UTERUS; estrous rat uterus, Table 4) [nM]	BIOASSAY (ANTI/OTA) (ESTROUS RAT UTERUS; ratio to ANTAG I, rat oxytocic bioassay)	Oxytocic Bioassay pA2 (ESTROUS RAT UTERUS; D-Trp^2,Pen^6,Arg^8 ] oxytocin)
CC[C@H](C)[C@@H]1NC(=O)[C@H](Cc2ccccc2)NC(=O)[C@@H](Cc2c[nH]c3ccccc23)NC(=O)CC2(CCCCC2)SSC[C@@H](C(=O)N2CCC[C@H]2C(=O)N[C@@H](CCCNC(=N)N)C(=O)NCC(N)=O)NC(=O)[C@H](CC(N)=O)NC1=O [Compound B, [Pmp^1,D-Trp^2,Phe^3,Ile^4,Arg^8] oxytocin] ([dW]FINCPRG-NH2; linker N-5 via X1)	7.40	7.51					
[(S)Pmp^1,D-Trp^2,Pen^6,Arg^8 ] oxytocin [Compound D]	< 5.75	8.86	very low activity	1.38	1.38	22.1	greater than 8.86
